The values below come from patent US9487506B2, “Mineralocorticoid receptor antagonists” (Merck Sharp & Dohme Corp., priority 2011, dated 2016).

This assay concerns the target T1, full-length human Mineralocorticoid Receptor (MR) (Homo sapiens, UniProt P08235).
T1 construct: host or cells: PathHunter CHO-K1 cells
T1 sequence (P08235 1-984): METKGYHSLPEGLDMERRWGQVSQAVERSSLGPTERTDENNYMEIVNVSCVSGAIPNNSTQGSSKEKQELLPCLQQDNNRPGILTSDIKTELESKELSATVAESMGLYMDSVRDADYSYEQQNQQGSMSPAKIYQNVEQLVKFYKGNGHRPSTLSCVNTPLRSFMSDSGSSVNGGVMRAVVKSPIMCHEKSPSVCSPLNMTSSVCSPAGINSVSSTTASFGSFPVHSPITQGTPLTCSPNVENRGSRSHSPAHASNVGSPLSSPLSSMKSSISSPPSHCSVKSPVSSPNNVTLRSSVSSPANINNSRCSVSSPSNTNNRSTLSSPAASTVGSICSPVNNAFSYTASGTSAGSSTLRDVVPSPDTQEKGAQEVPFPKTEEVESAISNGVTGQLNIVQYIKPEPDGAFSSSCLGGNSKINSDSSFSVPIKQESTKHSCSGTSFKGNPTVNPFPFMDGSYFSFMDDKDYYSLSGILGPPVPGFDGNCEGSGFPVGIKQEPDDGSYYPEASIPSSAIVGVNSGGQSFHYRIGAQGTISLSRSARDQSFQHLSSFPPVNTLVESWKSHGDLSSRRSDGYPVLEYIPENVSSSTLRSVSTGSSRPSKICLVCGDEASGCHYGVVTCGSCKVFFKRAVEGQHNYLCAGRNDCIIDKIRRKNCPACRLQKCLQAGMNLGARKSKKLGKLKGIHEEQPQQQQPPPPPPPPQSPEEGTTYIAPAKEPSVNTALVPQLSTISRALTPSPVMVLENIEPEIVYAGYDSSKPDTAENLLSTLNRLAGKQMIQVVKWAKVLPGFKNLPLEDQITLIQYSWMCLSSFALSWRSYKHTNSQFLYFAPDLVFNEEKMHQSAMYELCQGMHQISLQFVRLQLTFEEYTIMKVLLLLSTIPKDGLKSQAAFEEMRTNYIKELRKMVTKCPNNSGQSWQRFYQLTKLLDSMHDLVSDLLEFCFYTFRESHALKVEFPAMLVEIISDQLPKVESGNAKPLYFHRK
Description: human MR NH Pro assay (PathHunter Protein:Protein interaction assay), MR antagonist activity. To be noted: PathHunter CHO-K1 cells overexpressing human MR; aldosterone 0.3 nM to about 1 nM; 6 hours at 37° C.; luminescence; read-out: IP (rating); IP is the inflection point for a given dose-response titration curve. It is filed as cell-based. An excerpt:
The activity of the compounds of the present invention regarding mineralocorticoid receptor antagonism can be evaluated using the following assay.
Assessment of MR Potency in HMR NH Pro Assay
The human MR NH Pro assay is a commercially available PathHunter™ Protein:Protein interaction assay (DiscoveRx; http://www.discoverx.com/nhrs/prod-nhrs.php) that measures the ability of compounds to antagonize full-length human Mineralocorticoid Receptor (MR) binding to a coactivator peptide. PathHunter™ CHO-K1 cells that overexpress human MR (Cat #93-0456C2, Lot No: 09B0913) were cultured in growth media (F12K w/Glutamine and phenol red (Gibco 11765-047) supplemented with 10% HI FBS (Gibco 16000); 0.25 mg/ml Hygromycin in PBS (Invitrogen 10687-010, 50 mg/ml); 100 I.U./mL and 100 μg/mL Pen/Strep (Gibco 15140-122); 0.6 mg/mL Geneticin (Gibco 10131-027).
Compounds were assessed for MR antagonist activity by incubating the cells with a titrating dose of compound in F12K w/Glutamine and phenol red culture media (Invitrogen 11765-047) supplemented with 1% Charcoal/Dextran Treated FBS (Hyclone #SH30068.01) and aldosterone (0.3 nM to about 1 nM) for 6 hours at 37° C. Cells were then treated with DiscoveRx detection reagent for 1 hour at room temperature and read using an Envision luminescence plate reader. % activity was measured relative to cells treated with aldosterone alone and IC50 values were calculated using ADA software.
Stock solution was prepared at 10 μM in DMSO and stored at −20° C. for assay, dilute in assay media to 1.8 or 6 nM (6× of final concentration=about 0.3 nM to about 1.0 nM)
5. Cell line: PathHunter CHO-K1 MR cells Cat #93-0456C2, Lot No: 09B0913, from operation liquid nitrogen stock.
3. The cells concentration was adjusted to 4×10^5 cells/mL.
4. Cells were (25 μL/well) added to the wells of a 384 well plate.
5. The plate was then incubated at 37° C. over night in a humidified incubator with 5% CO2.
6. Test compounds were titrated starting at 4.4 mM, 10-point titration in 1:3 dilution.
7. Aldosterone was diluted in assay media to 1.8 nM or 6 nM from 10 μM stock (final concentration to be about 0.3 nM to about 1.0 nM)
1. 10K exponentially growing cells/well (25 μL) were resuspended in assay media and plated into each well using the Multidrop (Thermo Electron) (use white wall, clear bottom assay plates (Costar #3570) and incubated overnight at 37° C., 5% CO2.
2. 0.25 μL 120× test compound (final DMSO concentration should be <1%) was added to each well n=2, 10 point titrations starting at 36.7 μM final concentration.
3. 5 μL of 6× agonist (final aldosterone concentration should be about 0.3 nM to about 1.0 nM) was added to all wells (using the PlateMate Plus; (ThermoFisher) (except those wells in columns 23 and 24)
4. 5 μL of assay media was added to all wells in column 23 and 24.
5. Cells were then incubated for 6 hrs at 37° C., 5% CO2.
6. 15 μL 3× DiscoveRx detection reagent was then added to each well.
7. Plates were incubated for 1 hour at room temperature in the dark.
8. Plates were read on Envision (PerkinElmer) luminesence plate reader and analyzed using ADA.
`COC(=O)CCn1nc(C(CCC#N)c2ccc(Cl)cc2F)c2ccccc21` (centres unmarked) [Example 17C, Methyl 3-{3-[1-(4-chloro-2-fluorophenyl)-3-cyanopropyl]-1H-indazol-1-yl}propanoate]: the IC50 is 0.5 to 6 µM. On to `CSCn1nc(C(CCC#N)c2ccc(Cl)cc2F)c2ccccc21` (centres unmarked) [Example 17D, 4-(4-chloro-2-fluorophenyl)-4-{1-[(methyl-sulfanyl)-methyl]-1H-indazol-3-yl}-butanenitrile], for which the IC50 fell in the range of 0.5 to 6 µM.

In the case of `N#CCCC(c1ccc(Cl)cc1F)c1nn(CC#N)c2ccccc12` (centres unmarked) [Example 17E, 4-(4-chloro-2-fluorophenyl)-4-[1-(cyano-methyl)-1H-indazol-3-yl]-butanenitrile], the IC50 was in the range of 0.5 to 6 µM. Take `COCCn1nc(C(CCC#N)c2ccc(Cl)cc2F)c2ccccc21` (centres unmarked) [Example 17F, 4-(4-chloro-2-fluorophenyl)-4-[1-(2-methoxyethyl)-1H-indazol-3-yl]butanenitrile]: the IC50 fell in the range of 0.5 to 6 µM. `CC(C)(C)OC(=O)Cn1nc(C(C)(C)c2ccc(Cl)cc2)c2ccccc21` [Example 18, tert-butyl {3-[1-(4-chlorophenyl)-1-methylethyl]-1H-indazol-1-yl}acetate]: the IC50 was 0.5 to 6 µM.

In the case of `CCC(CC)(c1ccc(Cl)cc1)c1nn(CC(=O)OC)c2ccccc12` [Example 19, methyl {3-[1-(4-chlorophenyl)-1-ethylpropyl]-1H-indazol-1-yl}acetate], the IC50 lay in the range of 0.1 to 0.5 µM.

Consider `COC(=O)Cn1nc(Cc2ccc(Cl)cc2)c2ccccc21` [Example 20, Methyl [3-(4-chlorobenzyl)-1H-indazol-1yl]acetate], for which the IC50 was 0.5 to 6 µM. The value for `Clc1ccc(Cc2nn(Cc3ccccc3)c3ccccc23)cc1` [Example 21, 3-(4-chlorobenzyl)-1-benzyl-1H-indazole] was 0.5 to 6 µM.
